{
  "source": "patent US7217710B2",
  "about": "“Substituted pyrazolopyrimidines” (SmithKline Beecham Corporation, priority 2001, dated 2007)",
  "assay_type_in_all_cases": "biochemical",
  "key": {"[1]": {"biological_target": "Recombinant GST-Tie2 (Homo sapiens, UniProt Q02763)", "sequence (Q02763 23-1124)": "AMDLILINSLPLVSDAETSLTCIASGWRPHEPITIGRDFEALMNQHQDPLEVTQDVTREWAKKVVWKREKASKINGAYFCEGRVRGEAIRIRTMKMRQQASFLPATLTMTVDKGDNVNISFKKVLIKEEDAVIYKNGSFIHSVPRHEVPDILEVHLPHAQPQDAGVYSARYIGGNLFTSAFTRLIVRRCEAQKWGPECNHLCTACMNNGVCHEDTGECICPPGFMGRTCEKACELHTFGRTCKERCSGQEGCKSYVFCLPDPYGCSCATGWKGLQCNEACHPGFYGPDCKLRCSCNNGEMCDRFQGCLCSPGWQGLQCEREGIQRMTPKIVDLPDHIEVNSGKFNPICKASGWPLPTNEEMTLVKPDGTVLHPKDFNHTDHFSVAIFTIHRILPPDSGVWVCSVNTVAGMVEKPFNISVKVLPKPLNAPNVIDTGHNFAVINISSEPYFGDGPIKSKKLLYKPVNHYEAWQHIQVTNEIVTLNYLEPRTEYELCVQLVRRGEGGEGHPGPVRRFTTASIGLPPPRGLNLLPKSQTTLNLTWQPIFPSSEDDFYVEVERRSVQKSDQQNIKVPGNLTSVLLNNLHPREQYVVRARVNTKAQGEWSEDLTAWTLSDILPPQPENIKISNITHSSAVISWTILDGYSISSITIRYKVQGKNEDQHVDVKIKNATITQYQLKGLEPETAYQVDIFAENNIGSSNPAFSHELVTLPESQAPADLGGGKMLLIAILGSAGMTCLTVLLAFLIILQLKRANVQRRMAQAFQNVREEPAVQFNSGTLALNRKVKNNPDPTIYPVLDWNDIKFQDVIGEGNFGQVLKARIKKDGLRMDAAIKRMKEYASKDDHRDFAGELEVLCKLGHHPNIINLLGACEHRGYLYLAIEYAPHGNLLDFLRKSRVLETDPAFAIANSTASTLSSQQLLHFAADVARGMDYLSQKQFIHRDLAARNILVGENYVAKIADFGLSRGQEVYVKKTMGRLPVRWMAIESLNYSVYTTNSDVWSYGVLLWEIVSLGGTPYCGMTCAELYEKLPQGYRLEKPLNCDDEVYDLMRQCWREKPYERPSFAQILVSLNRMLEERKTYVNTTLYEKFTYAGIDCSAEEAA", "assay": "Tie2 Fluorescence Polarization Kinase Activity Assay (TIE2-FP)", "experimental": "Tie2 Fluorescence Polarization Kinase Activity Assay: (TIE2-FP)\nActivation of Recombinant Tie2 Activation:\nRecombinant GST-Tie2 is activated by incubating the enzyme in 20 mM Tris-HCl, pH 7.5, 12 mM MgCl2, 100 mM NaCl, 20 μM sodium vanidate, 1 mM DTT and 300 μM ATP at room temperature for 2 hours. The activation mixture is then passed through a NAP-25 desalting column (Pharmacia Biotech cat. no. 17-0852-02) to remove the free ATP. The activated enzyme is stored as aliquots at −80° C. in 20 mM Tris-HCl, pH 7.5 and 100 mM NaCl.\nThe final assay conditions are 50 mM HEPES, pH 7.5, 5% DMSO (when screening compounds), 200 μM ATP, 5 mM MgCl2, 1 mM DTT, 50 μM sodium vanidate, 1 nM activated enzyme, and 200 μM peptide. IC50's of compounds are measured under subsaturating ATP (200 μM) and varying concentrations of activated Tie2 and peptide substrate (RFWKYEFWR-OH; MW 1873 Da, TFA salt). Panvera Anti-phosphotyrosine antibody (Cat#P2840) and PTK Green Tracer (Cat#P2842) are used to detect the phosphorylated peptide. Polarization is measured on a TECAN Polarion in 138-second cycles for 30 minutes at room temperature. IC50's are then determined from the % polarization using normal calculation methods. The IC50 values are converted to pIC50 values, i.e., −log IC50 in Molar concentration."}, "[2]": {"biological_target": "T1, GST-VEGFR2 (Homo sapiens, UniProt P35968)", "T1 construct": "GST-VEGFR2, baculovirus expressed recombinant constructs of the intracellular domains; made in house", "T1 sequence (P35968 786-1356 limits assumed)": "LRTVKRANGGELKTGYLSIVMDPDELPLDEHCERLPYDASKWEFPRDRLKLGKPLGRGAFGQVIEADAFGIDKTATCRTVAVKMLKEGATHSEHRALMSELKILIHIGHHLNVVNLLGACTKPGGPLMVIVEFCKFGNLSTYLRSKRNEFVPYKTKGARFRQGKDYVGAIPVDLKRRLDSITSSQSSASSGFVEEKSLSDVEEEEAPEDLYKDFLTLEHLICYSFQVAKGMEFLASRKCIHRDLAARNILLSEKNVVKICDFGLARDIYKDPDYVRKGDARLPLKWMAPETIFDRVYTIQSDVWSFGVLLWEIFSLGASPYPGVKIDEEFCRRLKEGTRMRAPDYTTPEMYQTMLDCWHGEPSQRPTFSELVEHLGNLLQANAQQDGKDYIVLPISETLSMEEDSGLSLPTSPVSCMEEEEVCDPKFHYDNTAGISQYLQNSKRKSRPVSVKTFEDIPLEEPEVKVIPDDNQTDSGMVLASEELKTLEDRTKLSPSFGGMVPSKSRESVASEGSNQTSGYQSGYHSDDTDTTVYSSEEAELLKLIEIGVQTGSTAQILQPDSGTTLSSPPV", "assay": "VEGF-R2 Enzyme Assay (VEGF-E2), LANCE method"}, "[3]": {"biological_target": "T2, catalytic domain of human VEGFR3 (Homo sapiens, UniProt P35916, H890Q)", "T2 construct": "made in house; host or cells: Sf9 insect cells (baculovirus, pFastBac1)", "T2 sequence (P35916 with tags, fused parts or gaps isoform P35916-1 H890Q)": "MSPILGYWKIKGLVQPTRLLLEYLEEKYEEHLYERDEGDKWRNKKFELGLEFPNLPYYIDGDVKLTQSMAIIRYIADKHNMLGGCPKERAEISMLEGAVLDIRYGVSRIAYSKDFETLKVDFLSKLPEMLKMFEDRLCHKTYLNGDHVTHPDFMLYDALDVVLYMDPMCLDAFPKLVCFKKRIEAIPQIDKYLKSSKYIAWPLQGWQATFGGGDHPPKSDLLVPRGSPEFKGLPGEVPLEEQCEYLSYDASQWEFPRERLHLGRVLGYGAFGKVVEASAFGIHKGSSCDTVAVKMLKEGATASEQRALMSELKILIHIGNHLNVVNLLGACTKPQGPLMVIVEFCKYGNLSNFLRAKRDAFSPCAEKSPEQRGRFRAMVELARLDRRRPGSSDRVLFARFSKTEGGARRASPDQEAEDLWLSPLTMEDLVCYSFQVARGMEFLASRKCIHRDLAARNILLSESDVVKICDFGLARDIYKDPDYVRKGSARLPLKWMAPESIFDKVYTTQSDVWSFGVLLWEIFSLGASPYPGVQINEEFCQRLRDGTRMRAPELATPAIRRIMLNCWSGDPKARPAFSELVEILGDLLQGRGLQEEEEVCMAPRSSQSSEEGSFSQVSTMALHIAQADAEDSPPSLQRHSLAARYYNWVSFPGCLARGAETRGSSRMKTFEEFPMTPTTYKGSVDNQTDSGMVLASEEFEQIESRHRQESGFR", "assay": "VEGFR-3 Homogenous Time-Resolved Fluorescence Assay (VEGFR-3-HTRF)", "outline": "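GST-tagged human VEGFR3 catalytic domain (aa 819–1298, Sf9-expressed), pre-autophosphorylated 45 min with ATP/Mg, then 1 nM enzyme with 0.36 μM biotinylated peptide, 75 μM ATP, 10 mM MgCl2, pH 7.2, 1.5 h at room temperature. EDTA stop; HTRF detection; IC50 from hyperbolic fit of % control.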"}},
  "data": [
    {"compound": "CCN(CC)CCCCNc1ncnc2c1c(-c1ccc(NC(=O)Nc3cc(C(F)(F)F)ccc3F)cc1)nn2C", "note": "[Example 34, 1-{4-[(4-Diethylamino-butylamino)-methyl-1H-pyrazolo[3,4-d]pyrimidin-3-yl]-phenyl}-3-(2-fluoro-5-trifluoromethyl-phenyl)-urea]", "values": [
      {"measurement": "IC50", "setting": "[1]", "value": "< 100", "unit": "nM"},
      {"measurement": "VEGFR2 PIC50 VEGFR-E2 assay", "setting": "[2]", "value": "+ (+ = PIC50 = 5.00 to less than 6.00)"},
      {"measurement": "VEGFR3 PIC50 VEGFR-3-HTRF assay", "setting": "[3]", "value": "+ (+ = PIC50 = 5.00 to less than 6.00)"}
    ]},
    {"compound": "O=C(Nc1ccc(-c2n[nH]c3ncnc(N(CCN4CCOCC4)Cc4ccccc4)c23)cc1)Nc1cc(C(F)(F)F)ccc1F", "note": "[Example 50, 1-{4-[Benzyl-(2-morpholin-4-yl-ethylamino)-1H-pyrazolo[3,4-d]pyrimidin-3-yl]-phenyl}-3-(fluoro-trifluoromethyl-phenyl)-urea]", "values": [
      {"measurement": "IC50", "setting": "[1]", "value": "< 100", "unit": "nM"},
      {"measurement": "VEGFR2 PIC50 VEGFR-E2 assay", "setting": "[2]", "value": "++ (++ = PIC50 = 6.00 to less than 7.00)"},
      {"measurement": "VEGFR3 PIC50 VEGFR-3-HTRF assay", "setting": "[3]", "value": "+ (+ = PIC50 = 5.00 to less than 6.00)"}
    ]},
    {"compound": "CCc1cccc(NC(=O)Nc2ccc(-c3nn(Cc4ccccc4)c4nc(NCCN5CCOCC5)ncc34)cc2)c1", "note": "[Example 52, 1-{4-[Benzyl-(2-morpholin-4-yl-ethylamino)-1H-pyrazolo[3,4-d]pyrimidin-3-yl]-phenyl}-3-(ethyl-phenyl)-urea]", "values": [
      {"measurement": "IC50", "setting": "[1]", "value": "100 to 300", "unit": "nM"},
      {"measurement": "VEGFR2 PIC50 VEGFR-E2 assay", "setting": "[2]", "value": "+ (+ = PIC50 = 5.00 to less than 6.00)"},
      {"measurement": "VEGFR3 PIC50 VEGFR-3-HTRF assay", "setting": "[3]", "value": "+ (+ = PIC50 = 5.00 to less than 6.00)"}
    ]},
    {"compound": "1-{4-[Benzyl-(2-morpholin-4-yl-ethylamino)-1H-pyrazolo[3,4-d]pyrimidin-3-yl]-phenyl}-3-(fluoro-trifluoromethyl-phenyl)-thiourea [Example 51]", "values": [
      {"measurement": "TIE2 % inhibition (at 10 μM) TIE2-FP assay", "setting": "[1]; at 10 μM", "value": 0, "unit": "%"},
      {"measurement": "VEGFR2 PIC50 VEGFR-E2 assay", "setting": "[2]", "value": "+ (+ = PIC50 = 5.00 to less than 6.00)"},
      {"measurement": "VEGFR3 PIC50 VEGFR-3-HTRF assay", "setting": "[3]", "value": "+ (+ = PIC50 = 5.00 to less than 6.00)"}
    ]}
  ]
}
